According to patent publication US10670605B2, “Cysteine reactive probes and uses thereof” (The Scripps Research Institute, priority 2015, dated 2020):

How the values were obtained:
[1] = target: T1, NR3C1 C622 (P04150) (Homo sapiens, UniProt P04150); test: Competitive isoTOP-ABPP, cell lysates; assay type: binding
T1 sequence (P04150 1-777): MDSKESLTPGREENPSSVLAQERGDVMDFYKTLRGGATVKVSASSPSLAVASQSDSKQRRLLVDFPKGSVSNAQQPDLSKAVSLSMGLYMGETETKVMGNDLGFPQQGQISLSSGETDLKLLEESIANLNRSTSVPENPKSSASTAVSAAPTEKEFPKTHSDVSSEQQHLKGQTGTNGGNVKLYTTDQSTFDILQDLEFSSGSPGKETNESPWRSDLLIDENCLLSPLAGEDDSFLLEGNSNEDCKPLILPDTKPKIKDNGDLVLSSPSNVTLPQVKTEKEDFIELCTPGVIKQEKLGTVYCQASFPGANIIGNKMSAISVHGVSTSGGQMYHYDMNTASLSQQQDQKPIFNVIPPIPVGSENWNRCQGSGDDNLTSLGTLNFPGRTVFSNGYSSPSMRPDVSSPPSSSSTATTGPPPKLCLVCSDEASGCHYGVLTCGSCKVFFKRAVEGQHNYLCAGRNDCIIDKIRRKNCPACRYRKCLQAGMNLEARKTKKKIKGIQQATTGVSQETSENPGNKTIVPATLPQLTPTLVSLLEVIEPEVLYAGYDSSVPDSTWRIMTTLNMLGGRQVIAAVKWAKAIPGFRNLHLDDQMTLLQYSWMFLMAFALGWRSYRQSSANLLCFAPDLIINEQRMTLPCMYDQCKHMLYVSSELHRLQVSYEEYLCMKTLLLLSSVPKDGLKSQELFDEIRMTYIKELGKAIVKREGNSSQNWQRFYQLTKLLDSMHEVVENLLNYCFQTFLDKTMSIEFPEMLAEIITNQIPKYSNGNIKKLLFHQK

[2] = target: T2, cysteines in MDA-MB-231 and Ramos cells (Homo sapiens, UniProt P10398); test: Competitive isoTOP-ABPP in situ (fragment-treated cells); assay type: cell-based; details: 200 μM, insitu
T2 sequence (P10398 1-606): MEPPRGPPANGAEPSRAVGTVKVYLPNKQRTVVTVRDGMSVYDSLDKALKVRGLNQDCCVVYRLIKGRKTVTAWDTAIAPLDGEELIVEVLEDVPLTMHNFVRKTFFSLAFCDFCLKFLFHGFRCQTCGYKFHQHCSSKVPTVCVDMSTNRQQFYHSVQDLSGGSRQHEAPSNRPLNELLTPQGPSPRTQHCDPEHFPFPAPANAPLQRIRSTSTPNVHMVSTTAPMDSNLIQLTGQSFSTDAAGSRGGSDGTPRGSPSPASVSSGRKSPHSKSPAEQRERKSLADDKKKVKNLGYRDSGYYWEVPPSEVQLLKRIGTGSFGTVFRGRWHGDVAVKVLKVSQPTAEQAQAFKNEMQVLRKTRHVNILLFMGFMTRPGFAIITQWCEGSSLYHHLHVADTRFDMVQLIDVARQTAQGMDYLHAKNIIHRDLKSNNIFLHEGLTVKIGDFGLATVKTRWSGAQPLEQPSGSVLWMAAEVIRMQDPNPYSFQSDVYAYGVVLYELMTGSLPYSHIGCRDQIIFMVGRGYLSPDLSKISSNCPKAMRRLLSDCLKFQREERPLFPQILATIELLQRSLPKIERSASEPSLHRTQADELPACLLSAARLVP

[3] = target: T3, cysteines in MDA-MB-231 and Ramos cells (Homo sapiens, UniProt Q9UL40); test: as above; assay type: cell-based; details: 200 μM, insitu
T3 sequence (Q9UL40 1-294): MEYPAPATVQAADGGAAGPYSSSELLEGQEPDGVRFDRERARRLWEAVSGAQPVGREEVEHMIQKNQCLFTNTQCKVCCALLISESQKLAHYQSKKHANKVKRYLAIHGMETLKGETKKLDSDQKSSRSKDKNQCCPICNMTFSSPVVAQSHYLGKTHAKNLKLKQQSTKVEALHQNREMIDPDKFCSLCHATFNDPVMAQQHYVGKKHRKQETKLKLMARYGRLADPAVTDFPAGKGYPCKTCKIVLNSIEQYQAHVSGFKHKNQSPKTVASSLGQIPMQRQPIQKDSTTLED

SMILES: O=C(CCl)Nc1cc(C(F)(F)F)cc(C(F)(F)F)c1 [compound 3]
- R value (DMSO/fragment) ([1]; 500 μM, in vitro, MDA-MB-231): 20.0

SMILES: O=C(CCl)N1CCN(S(=O)(=O)c2ccccc2F)CC1 [compound 10]
- isoTOP-ABPP ratio, cysteine P10398_C597 [2]; 231: 1.4

SMILES: Cn1cc(S(=O)(=O)N2CCOCC2)cc1C(=O)NC(=O)CCl [compound 11]
- isoTOP-ABPP ratio, P04150_C622 ([1]; 500 μM, invitro, 231): 1.7

SMILES: O=C(CCl)NC(=O)NC12CC3CC(CC(C3)C1)C2 [compound 12]
- isoTOP-ABPP ratio, cysteine Q9UL40_C68 [3]; 231: 20.0

SMILES: O=C(CCl)NCCc1c[nH]c2ccccc12 [compound 13]
- isoTOP-ABPP ratio, cysteine P10398_C597 ([2]; ramos): 1.0
- isoTOP-ABPP ratio, cysteine Q9UL40_C68 ([3]; ramos): 20.0

SMILES: O=C(CCl)NC12CC3CC(CC(C3)C1)C2 [compound 21]
- isoTOP-ABPP ratio, cysteine P10398_C597 [2]; 231: 0.7

SMILES: CC(C)CCOCCNC(=O)CCl [compound 27]
- isoTOP-ABPP ratio Q9UL40_C68 [3]; 231: 1.9

SMILES: O=C(CCl)N1CCN(CC(=O)N2CCOCC2)CC1 [compound 29]
- isoTOP-ABPP ratio P10398_C597 ([2]; ramos): 1.2
- isoTOP-ABPP ratio Q9UL40_C68 ([3]; ramos): 2.4

SMILES: C=CC(=O)N(Cc1cccnc1)c1cc(C(F)(F)F)cc(C(F)(F)F)c1 [compound 31]
- isoTOP-ABPP reactivity ratio, P04150_C622 ([1]; 500 μm, in-vitro_ramos_231): 4.8
